Like-named read-outs stand apart in the source and are kept apart here.
Tests used:
[1] = Pharmacokinetics from plasma levels after i.p. administration to rats; type: in vivo, rat; conditions: i.p. 80 mg/kg; for CL/F / Cmax / MRT / Tmax / half-life / Vd/F / AUC(0-inf): male, Sprague Dawley, rat, ip; for Vd/F: read-out: Vss/F; for AUC(0-inf): plasma
Description: (§1) The pharmacokinetics (PK) of racemic-MBPC and its two individual enantiomers were studied following i.p. administration (80 mg/kg) to male Sprague Dawley rats weighing approximately 200–250 g, and their major PK parameters were estimated. The PK experiments were approved by the Ethical Committee of the Hebrew University’s Faculty of Medicine. The dose was administered to rats in multisol that is a mixture of propylene glycol, alcohol (EtOH), and water for injection at a ratio of 8:1:1. The study details were as described previously. Plasma and brain levels of racemic-MBPC and its individual enantiomers were monitored at 20, 40, 60, 90, 120, 160, 180, 200, 220, and 260 min after dosing. Two rats were sacrificed at each time point.
(§2) Plasma and brain concentrations of each compound were quantified by an HPLC assay. The HPLC analysis was performed on a system (2695 Separation Module; Waters, Milford, MA, USA) with a photodiode array UV detector (2996 PDA Detector; Waters, Milford, MA, USA) conditioned as follows: Kinetex, 5 u EVO C18 100 A, 1504.6-mm column (PhenomenexVR, Torrance, CA, USA). Linear gradients (5–95% acetonitrile content) with H2O (0.1% formic acid) and acetonitrile were used as the eluents with a flow rate of 1 mL/min at 20 °C. The compounds and the internal standard were detected at 250 nm. Plasma and brain concentrations of MBPC and its two individual enantiomers were quantified as previously described, [29].
(§3) The PK parameters of each compound were calculated by non-compartmental analysis based on statistical moment theory using the PK software Phoenix Winnonlin Tripos L.P. (Pharsight Co., Mountain View, CA, USA) as previously described.

[2] = Pharmacokinetics from brain levels after i.p. administration to rats; type: in vivo, rat; conditions: i.p. 80 mg/kg; for AUCinf / AUC(0-inf) / CL/F / Cmax / MRT / Tmax / half-life / Vd/F: brain levels; for AUCinf / AUC(0-inf): 80 mg/kg; for AUC(0-inf) / Kp / CL/F / Cmax / MRT / Tmax / half-life / Vd/F: male, Sprague Dawley, rat, ip; for Kp: AUCbrain/AUCplasma, read-out: Brain-to-plasma (AUCinf) ratio; for Vd/F: read-out: Vss/F
Description: as §1, §2, §3

[3] = tested on: rat maximal electroshock test (MES); experiment: Rat maximal electroshock (MES) anticonvulsant test; type: in vivo; conditions: po, rats dosed p.o., read-out: MES-ED50 [95% CI]
Description: The experiments with the MES model were conducted in male Sprague Dawley rats weighing 100–120 g (Charles River Laboratories, Wilmington, MA, USA) as previously described. Eight rats were tested per dose in the dose–response curve in order to determine the ED50 value of each compound. The experiments were approved by the Ethical Committee of the NIH-ETSP program where the anticonvulsant activity was tested.

[4] = Minimal neurotoxicity (TD50) in rats; type: in vivo, rat; conditions: rat, in vivo, po; rats dosed p.o.; read-out: Neurotoxicity-TD50 [95% CI]
From the text: (§4) Table 3 Quantitative anticonvulsant and minimal neurotoxicity data (ED50 and TD50 values) and protective indexes (PI) of […] (MBPC) and 3-methylpentyl(4-sulfamoylphenyl)carbamate (MSPC). in rats dosed p.o. or i.p. ^b. | column: Neurotoxicity-TD50 (mg/kg) [95% CI] ^a; Protective Index (PI = TD50/ED50)

[5] = tested on: rats; experiment: Minimal neurotoxicity (TD50) in rats; type: in vivo, rat; conditions: rats dosed p.o.
From the text: as §4

[6] = biological target: T1, human carbonic anhydrase (CA) isoform I (Homo sapiens, UniProt P00915); experiment: Stopped-flow CO2 hydrase assay, CA I; type: biochemical; conditions: for Ki: means ± SEM of 3 different assays
T1 sequence (P00915 whole entry, canonical isoform): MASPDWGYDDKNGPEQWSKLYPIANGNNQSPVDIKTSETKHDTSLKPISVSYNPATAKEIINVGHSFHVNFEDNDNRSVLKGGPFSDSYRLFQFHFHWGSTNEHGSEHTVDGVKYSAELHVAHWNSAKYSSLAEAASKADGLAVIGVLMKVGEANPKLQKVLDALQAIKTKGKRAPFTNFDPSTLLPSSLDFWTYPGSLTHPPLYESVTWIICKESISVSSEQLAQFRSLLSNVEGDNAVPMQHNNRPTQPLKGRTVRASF

[7] = biological target: T2, human carbonic anhydrase (CA) isoform II (Homo sapiens, UniProt P00918); experiment: Stopped-flow CO2 hydrase assay, CA II; type: biochemical; conditions: for Ki: means ± SEM of 3 different assays
[8] = biological target: T3, human carbonic anhydrase (CA) isoform IV (Homo sapiens, UniProt P22748); experiment: Stopped-flow CO2 hydrase assay, CA IV; type: biochemical; conditions: means ± SEM of 3 different assays
T3 sequence (P22748 19-312): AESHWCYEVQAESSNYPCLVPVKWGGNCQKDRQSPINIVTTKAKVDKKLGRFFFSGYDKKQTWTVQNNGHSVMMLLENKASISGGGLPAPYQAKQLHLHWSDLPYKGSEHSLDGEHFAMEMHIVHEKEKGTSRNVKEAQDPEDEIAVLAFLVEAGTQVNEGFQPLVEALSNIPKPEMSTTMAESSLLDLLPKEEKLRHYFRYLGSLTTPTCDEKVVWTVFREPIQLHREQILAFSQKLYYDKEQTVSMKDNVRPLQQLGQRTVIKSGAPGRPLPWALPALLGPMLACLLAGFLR

[9] = biological target: T4, human carbonic anhydrase (CA) isoform VII (Homo sapiens, UniProt P43166); experiment: Stopped-flow CO2 hydrase assay, CA VII; type: biochemical; conditions: for Ki: means ± SEM of 3 different assays
T4 sequence (P43166 whole entry, canonical isoform): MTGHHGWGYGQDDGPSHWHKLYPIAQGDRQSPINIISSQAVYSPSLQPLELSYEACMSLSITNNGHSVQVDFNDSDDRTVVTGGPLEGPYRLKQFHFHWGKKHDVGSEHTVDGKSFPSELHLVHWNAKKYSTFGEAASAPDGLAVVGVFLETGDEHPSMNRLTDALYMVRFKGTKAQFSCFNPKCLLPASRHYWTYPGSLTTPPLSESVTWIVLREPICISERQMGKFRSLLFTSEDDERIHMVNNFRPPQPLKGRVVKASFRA

[10] = tested on: rat maximal electroshock test (MES); parameters: method as in PMID 28275953, PMID 31124389; conditions: cited from earlier work
[11] = tested on: rats; parameters: method as in PMID 28275953, PMID 31124389; conditions: cited from earlier work
[12] = biological target: T1, human carbonic anhydrase (CA) isoform I; parameters: method as in PMID 28275953, PMID 31124389; conditions: previously reported data; cited from earlier work
[13] = biological target: T2, human carbonic anhydrase (CA) isoform II; parameters: method as in PMID 28275953, PMID 31124389; conditions: previously reported data; cited from earlier work
[14] = biological target: T3, human carbonic anhydrase (CA) isoform IV; parameters: method as in PMID 28275953, PMID 31124389; conditions: previously reported data; cited from earlier work
[15] = biological target: T4, human carbonic anhydrase (CA) isoform VII; parameters: method as in PMID 28275953, PMID 31124389; conditions: previously reported data; cited from earlier work
[16] = Enantiostability: extraction from rat plasma and optical rotation measurement; type: in vitro ADME; conditions: extracted from rat plasma; specific optical rotation compared to initial value
From the text: MBPC was not included in such a series. […] The slightly better BPR of (S)-MBPC may contribute to its better rat anticonvulsant ED50 value. MBPC’s BPR values were better than that of (S)-MSPC but lower than those of racemic- and (R)-MSPC [10]. While (R)-MSPC has lower plasma and brain exposure compared to (S)-MSPC, the two MBPC enantiomers had similar brain permeability, with a slightly better BPR value for (S)-MBPC.

Compound	CL/F ([1]; plasma levels) [mL/min/kg]	Cmax ([1]; plasma levels) [ng/mL]	MRT ([1]; plasma levels) [h]	Tmax ([1]; plasma levels) [h]	half-life ([1]; plasma levels) [h]	Vd/F ([1]; plasma levels) [L/kg]	AUC(0-inf) ([1]; 80 mg/kg, plasma levels) [ng·h/mL]	AUCinf [2] [ng·h/mL]	AUC(0-inf) ([2]; brain) [ng·h/mL]	CL/F [2] [mL/min/kg]	Cmax [2] [ng/mL]	MRT [2] [h]	Tmax [2] [h]	half-life [2] [h]	Vd/F [2] [L/kg]	ED50 [3] [mg/kg]	TD50 [4] [mg/kg]	Protective Index (PI = TD50/ED50) [5]	Ki [6] [µM]	Ki [7] [µM]	also measured
CCC(C)OC(=O)Nc1ccc(S(N)(=O)=O)cc1 (racemic) [Racemic-MBPC]	41.7	15300	1.7	0.33	0.5	4.3	32000	47800	48000	28.3	16500	2	1.33	0.7	3.4	25	> 500	>20	0.0971 ± 0.0053	0.0202 ± 0.0015	Kp ([2]; brain/plasma): 1.49; Ki [8]: 0.432 ± 0.028 µM; Ki [9]: 0.121 ± 0.008 µM
CCC(C)CCOC(=O)Nc1ccc(S(N)(=O)=O)cc1 (racemic) [Racemic-MSPC, 3-methylpentyl(4-sulfamoylphenyl)carbamate]																					MES-ED50 [95% CI] ([10]; rats dosed i.p.): 13 [8–22] mg/kg; MES-ED50 [95% CI] ([10]; rats dosed p.o.): 28 [18–35] mg/kg; Neurotoxicity-TD50 [95% CI] ([11]; rats dosed i.p.): >250 mg/kg; Protective Index (PI = TD50/ED50) ([11]; rats dosed i.p.): >19; Neurotoxicity-TD50 [95% CI] ([11]; rats dosed p.o.): >500 mg/kg; Protective Index (PI = TD50/ED50) ([11]; rats dosed p.o.): >18; Ki [12]: 0.077 ± 0.0047 µM; Ki [13]: 0.0076 ± 0.0005 µM; Ki [14]: 0.75 ± 0.042 µM; Ki [15]: 0.351 ± 0.026 µM
CC[C@@H](C)OC(=O)Nc1ccc(S(N)(=O)=O)cc1 [(R)-MBPC]	55	10700	2	1.7	0.6	6.7	24000	30400	30000	43.3	11400	2.1	2.7	0.5	5.4	39	> 500	>13	0.203 ± 0.013	0.0071 ± 0.0004	higher clearance than its enantiomer ([1]; (R)- vs (S)-enantiomer): 65%; Kp ([2]; brain): 1.27; effectiveness relative to its (S)-enantiomer against hCA II ([7]; ratio of KI values): five times more effective; Ki [8]: 0.522 ± 0.026 µM; Ki [9]: 0.197 ± 0.014 µM; enantiostability (chiral inversion) [16]: no chiral inversion was observed
CC[C@@H](C)CCOC(=O)Nc1ccc(S(N)(=O)=O)cc1 [(R)-MSPC]																					MES-ED50 [95% CI] ([10]; rats dosed i.p.): 39 [31–44] mg/kg; MES-ED50 [95% CI] ([10]; rats dosed p.o.): 30 [22–37] mg/kg; Neurotoxicity-TD50 [95% CI] ([11]; rats dosed i.p.): 134 [108–158] mg/kg; Protective Index (PI = TD50/ED50) ([11]; rats dosed i.p.): 3.4; Ki [12]: 0.0341 ± 0.0025 µM; Ki [13]: 0.0033 ± 0.0002 µM; Ki [14]: 0.81 ± 0.055 µM; Ki [15]: 0.17 ± 0.009 µM
CC[C@H](C)OC(=O)Nc1ccc(S(N)(=O)=O)cc1 [(S)-MBPC]	33.3	12700	2.7	1	1.2	5.7	40000	51500	52000	26.7	15200	4.2	1.66	0.9	5	19	> 200	>11	0.0718 ± 0.0065	0.0349 ± 0.0014	AUCinf ([1]; plasma levels, 80 mg/kg): 39600 ng·h/mL; Kp ([2]; brain): 1.32; times more effective than the (R)-enantiomer against hCA I ([6]; ratio of KI values): 2.9 times; Ki [8]: 0.249 ± 0.013 µM; Ki [9]: 0.0533 ± 0.0029 µM; times more effective than the (R)-enantiomer against hCA VII ([9]; ratio of KI values): 3.7 times; enantiostability (chiral inversion) [16]: no chiral inversion was observed
CC[C@H](C)CCOC(=O)Nc1ccc(S(N)(=O)=O)cc1 [(S)-MSPC]																					MES-ED50 [95% CI] ([10]; rats dosed i.p.): 43 [33–52] mg/kg; MES-ED50 [95% CI] ([10]; rats dosed p.o.): 24 [17–29] mg/kg; Neurotoxicity-TD50 [95% CI] ([11]; rats dosed i.p.): 149 [121–157] mg/kg; Protective Index (PI = TD50/ED50) ([11]; rats dosed i.p.): 3.5; Ki [12]: 0.13 ± 0.008 µM; Ki [13]: 0.0203 ± 0.0014 µM; Ki [14]: 0.593 ± 0.042 µM; Ki [15]: 0.744 ± 0.036 µM

— publication PMC8037586, “Synthesis and Enantioselective Pharmacokinetic/Pharmacodynamic Analysis of New CNS-Active Sulfamoylphenyl Carbamate Derivatives” (International Journal of Molecular Sciences, 2021)
